US12077503B2, “Substituted cyclic amides and their use as herbicides” (FMC CORPORATION, priority 2015, dated 2024)
Where two headings read alike, the source gives them in different places.

Assays:
Assay type in all cases: in vivo
[1] = tested on: ryegrass, Italian (Italian ryegrass, Lolium multiflorum); test: Test A postemergence; conditions: Lolium multiflorum, post-emergence, 240 h, Postemergence; for pest or weed control at 125 g/ha: 125 g ai/ha, visual rating about 10 d after treatment, read-out: Ryegrass, Italian plant response rating (0 to 100 scale); for pest or weed control at 500 g/ha: 500 g ai/ha, visual injury, 0 to 100 scale (0 no effect, 100 complete control), approx. 10 d, read-out: Plant response rating, Ryegrass, Italian
Method in brief: (§1)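 Preemergence directed soil spray on seeded pots, or postemergence application to plants 2–10 cm, one- to two-leaf. Solvent mixture non-phytotoxic, with surfactant. Scored ~10 d later, visually, 0–100 vs untreated.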

Kochia (Kochia scoparia) [2] = test: Test A postemergence; conditions: Bassia scoparia, post-emergence, 240 h, Postemergence; for pest or weed control at 125 g/ha: 125 g ai/ha, visual rating about 10 d after treatment, read-out: Kochia plant response rating (0 to 100 scale); for pest or weed control at 500 g/ha: 500 g ai/ha, visual injury, 0 to 100 scale (0 no effect, 100 complete control), approx. 10 d, read-out: Plant response rating, Kochia
Method in brief: as §1

[3] = tested on: giant foxtail (Setaria faberii); test: Test A postemergence; conditions: Setaria faberi, post-emergence, 240 h, Postemergence; for pest or weed control at 125 g/ha: 125 g ai/ha, visual rating about 10 d after treatment, read-out: Foxtail, Giant plant response rating (0 to 100 scale); for pest or weed control at 500 g/ha: 500 g ai/ha, visual injury, 0 to 100 scale (0 no effect, 100 complete control), approx. 10 d, read-out: Plant response rating, Foxtail, Giant
Method in brief: as §1

[4] = tested on: pigweed (Amaranthus retroflexus); test: Test A postemergence; conditions: Amaranthus retroflexus, post-emergence, 240 h, Postemergence; for pest or weed control at 125 g/ha: 125 g ai/ha, visual rating about 10 d after treatment, read-out: Pigweed plant response rating (0 to 100 scale); for pest or weed control at 500 g/ha: 500 g ai/ha, visual injury, 0 to 100 scale (0 no effect, 100 complete control), approx. 10 d, read-out: Plant response rating, Pigweed
Method in brief: as §1

[5] = tested on: barnyardgrass (Echinochloa crus-galli); test: Test B flooded paddy test; conditions: Echinochloa crus-galli, 250 g ai/ha, Flood
Method in brief: (§2)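 Evaluation by eye, against controls, occurred 13–15 d post-treatment in a greenhouse, using a 0 (no effect) to 100 (complete control) scale. Application was into the paddy water, 3 cm deep over the soil, on 2-leaf plants.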

rice (Oryra sativa) = test: Test B flooded paddy test; conditions: Oryza sativa, 250 g ai/ha, Flood
Method in brief: as §2

[6] = tested on: sedge, umbrella (small-flower umbrella sedge, Cyperus difformis); test: Test B flooded paddy test; conditions: Cyperus difformis, 360 h, Flood, 250 g ai/ha; visually evaluated after 13 to 15 d; read-out: Plant response rating, Sedge, Umbrella (0 to 100 scale where 0 is no effect and 100 is complete control)
Method in brief: as §2

[7] = tested on: ducksalad (Heteranthera limosa); test: Test B flooded paddy test; conditions: Heteranthera limosa, 250 g ai/ha, Flood
Method in brief: as §2

[8] = tested on: barnyardgrass (Echinochloa crus-galli); test: Test A preemergence; conditions: Echinochloa crus-galli, pre-emergence, 240 h; for pest or weed control at 500 g/ha: 500 g ai/ha, preemergence; for pest or weed control at 125 g/ha: Preemergence, 125 g ai/ha
Method in brief: as §1

[9] = tested on: ragweed (common ragweed, Ambrosia elatior); test: Test A preemergence; conditions: Ambrosia artemisiifolia, pre-emergence, 240 h; for pest or weed control at 500 g/ha: 500 g ai/ha, preemergence; for pest or weed control at 125 g/ha: Preemergence, 125 g ai/ha
Method in brief: as §1

[10] = tested on: ryegrass, Italian (Italian ryegrass, Lolium multiflorum); test: Test A preemergence; conditions: Lolium multiflorum, pre-emergence, 240 h, 0 to 100 scale (0 no effect, 100 complete control), read-out: Plant response rating, Ryegrass, Italian; for pest or weed control at 125 g/ha: Preemergence, 125 g ai/ha; for pest or weed control at 500 g/ha: 500 g ai/ha, preemergence
Method in brief: as §1

Kochia (Kochia scoparia) [11] = test: Test A preemergence; conditions: Bassia scoparia, pre-emergence, 240 h; for pest or weed control at 500 g/ha: 500 g ai/ha, preemergence; for pest or weed control at 125 g/ha: Preemergence, 125 g ai/ha
Method in brief: as §1

[12] = tested on: giant foxtail (Setaria faberii); test: Test A preemergence; conditions: Setaria faberi, pre-emergence, 240 h; for pest or weed control at 500 g/ha: 500 g ai/ha, preemergence; for pest or weed control at 125 g/ha: Preemergence, 125 g ai/ha
Method in brief: as §1

[13] = tested on: pigweed (Amaranthus retroflexus); test: Test A preemergence; conditions: Amaranthus retroflexus, pre-emergence, 240 h; for pest or weed control at 500 g/ha: 500 g ai/ha, preemergence; for pest or weed control at 125 g/ha: Preemergence, 125 g ai/ha
[14] = 0 to 100 scale where 0 is no effect and 100 is complete control, read-out: Barnyardgrass plant response rating
[15] = 0 to 100 scale where 0 is no effect and 100 is complete control, read-out: Rice plant response rating
[16] = 0 to 100 scale where 0 is no effect and 100 is complete control, read-out: Ducksalad plant response rating
[17] = 0 to 100 scale (0 no effect, 100 complete control), read-out: Plant response rating, Barnyardgrass
[18] = 0 to 100 scale where 0 is no effect and 100 is complete control, read-out: Ragweed plant response rating
[19] = 0 to 100 scale (0 no effect, 100 complete control), read-out: Plant response rating, Ragweed
[20] = 0 to 100 scale where 0 is no effect and 100 is complete control, read-out: Kochia plant response rating
[21] = 0 to 100 scale (0 no effect, 100 complete control), read-out: Plant response rating, Kochia
[22] = 0 to 100 scale where 0 is no effect and 100 is complete control, read-out: Foxtail, Giant plant response rating
[23] = 0 to 100 scale (0 no effect, 100 complete control), read-out: Plant response rating, Foxtail, Giant
[24] = 0 to 100 scale where 0 is no effect and 100 is complete control, read-out: Pigweed plant response rating
[25] = 0 to 100 scale (0 no effect, 100 complete control), read-out: Plant response rating, Pigweed
[26] = 360 h, visually evaluated after 13 to 15 d, read-out: Plant response rating, Barnyardgrass (0 to 100 scale where 0 is no effect and 100 is complete control)
[27] = 360 h, visually evaluated after 13 to 15 d, read-out: Plant response rating, Rice (0 to 100 scale where 0 is no effect and 100 is complete control)
[28] = 360 h, visually evaluated after 13 to 15 d, read-out: Plant response rating, Ducksalad (0 to 100 scale where 0 is no effect and 100 is complete control)

| SMILES | pest or weed control at 125 g/ha [1] | pest or weed control at 500 g/ha [1] | pest or weed control at 125 g/ha (Kochia (Kochia scoparia) [2]) | pest or weed control at 500 g/ha (Kochia (Kochia scoparia) [2]) | pest or weed control at 125 g/ha [3] | pest or weed control at 500 g/ha [3] | pest or weed control at 125 g/ha [4] | pest or weed control at 500 g/ha [4] | pest or weed control at 250 g/ha [5, 14] | pest or weed control at 250 g/ha (rice (Oryra sativa); [15]) | pest or weed control at 250 g/ha [6] | pest or weed control at 250 g/ha [7, 16] | pest or weed control at 500 g/ha [8, 14] | pest or weed control at 125 g/ha [8, 17] | pest or weed control at 500 g/ha [9, 18] | pest or weed control at 125 g/ha [9, 19] | pest or weed control at 125 g/ha [10] | pest or weed control at 125 g/ha (Kochia (Kochia scoparia) [11]; [21]) | pest or weed control at 125 g/ha [12, 23] | pest or weed control at 125 g/ha [13, 25] | also measured |
| --- | --- | --- | --- | --- | --- | --- | --- | --- | --- | --- | --- | --- | --- | --- | --- | --- | --- | --- | --- | --- | --- |
| O=C1NC[C@H](c2ccc(OC(F)F)cc2)[C@H]1C(=O)Nc1ccc(F)cc1F [Compound 1325] | 0% | 0% | 70% | 80% | 80% | 90% | 70% | 90% | 15% | 0% | 0% | 100% | 90% | 90% | 70% | 10% | 0% | 80% | 90% | 60% | pest or weed control at 500 g/ha (Kochia (Kochia scoparia) [11]; [20]): 90%; pest or weed control at 500 g/ha [12, 22]: 90%; pest or weed control at 500 g/ha [13, 24]: 90% |
| Cc1c(F)ccc([C@H]2CNC(=O)[C@@H]2C(=O)Nc2ccccc2F)c1F [Compound 1326] | 0% | 20% | 0% | 0% | 0% | 0% | 0% | 0% | 0% | 0% | 0% | 70% | 90% | 80% | 0% | 0% | 20% | 30% | 60% | 0% | pest or weed control at 500 g/ha (Kochia (Kochia scoparia) [11]; [20]): 100%; pest or weed control at 500 g/ha [12, 22]: 90%; pest or weed control at 500 g/ha [13, 24]: 0% |
| C=CCOc1cccc(C2CN(C)C(=O)C2C(=O)Nc2ccccc2F)c1 (stereo not shown) [Compound 1329] | 0% | 50% | 40% | 50% | 90% | 90% | 0% | 0% |  |  | 0% |  |  | 90% |  | 0% | 0% | 50% | 90% | 0% | pest or weed control at 250 g/ha [5, 26]: 60%; pest or weed control at 250 g/ha (rice (Oryra sativa); [27]): 0%; pest or weed control at 250 g/ha [7, 28]: 70%; pest or weed control at 500 g/ha [8, 17]: 100%; pest or weed control at 500 g/ha [9, 19]: 20%; pest or weed control at 500 g/ha [10]: 40%; pest or weed control at 500 g/ha (Kochia (Kochia scoparia) [11]; [21]): 50%; pest or weed control at 500 g/ha [12, 23]: 90%; pest or weed control at 500 g/ha [13, 25]: 30% |
| CN1CC[C@H](c2cccc(C(F)(F)F)c2)[C@@H](C(=O)Nc2cccc(F)c2F)C1=O [Compound 1330] | 0% | 20% | 0% | 20% | 90% | 90% | 0% | 0% |  |  | 0% |  |  | 90% |  | 0% | 50% | 20% | 90% | 0% | pest or weed control at 250 g/ha [5, 26]: 85%; pest or weed control at 250 g/ha (rice (Oryra sativa); [27]): 0%; pest or weed control at 250 g/ha [7, 28]: 90%; pest or weed control at 500 g/ha [8, 17]: 90%; pest or weed control at 500 g/ha [9, 19]: 50%; pest or weed control at 500 g/ha [10]: 50%; pest or weed control at 500 g/ha (Kochia (Kochia scoparia) [11]; [21]): 90%; pest or weed control at 500 g/ha [12, 23]: 90%; pest or weed control at 500 g/ha [13, 25]: 0% |
